Reference: patent US20220267857A1, “METHOD FOR DETERMINING THE RESPONSE TO TREATMENT OF A PATIENT AFFECTED BY NON-SMALL CELL LUNG CARCINOMA (NSCLC)” (FUNDACIÓN PARA LA INVESTIGACIÓN BIOMÉDIKCA DEL HOSPITAL …, priority 2019, published 2022)

Key:
Assay in all cases: Viability curves to CDDP, resistant vs sensitive subtype
Type in all cases: cell-based
[1] = tested on: H23S/H23R lung cancer cell lines; conditions: IC50 of resistant cell line/IC50 of sensitive cell line, p<0.001
Procedure: (§1) FIG. 1. Viability curves to CDDP and CBDCA. The curves show CDDP resistance of cells (A) H23R, (B) H460R, (C) A2780R and (D) 41MR; and to CBDCA of cells (E) H23R-CBDCA and (F) A2780R-CBDCA. The data was normalized with respect to the untreated control, which was established as 100%. IC50 is the concentration that induces the death of 50% of the cell population. The resistance index (IR) is calculated as IC50 of the resistant cell line/IC50 of the sensitive cell line. P<0.001 was considered a significant change in drug sensitivity (Student's t test).
(§2) Cell Culture Lung and ovarian cancer cell lines H23, H460, H1299, H727, A2780 and OVCAR3 were purchased from the ATCC (Manassas, Va.) or ECACC (Sigma-Aldrich, Spain). All of them were maintained in RPMI supplemented with 10% exosome-depleted FBS, except for OVCAR3 which was cultured in RPMI with 20% exosome-depleted FBS. FBS was depleted of bovine exosomes by ultracentrifugation at 100,000×g for 16 h at 4° C. The CDDP-resistant variants H23R, H460R, A2780R and OVCAR3R, and the carboplatin-resistant variants H23R-CBDCA and A2780R-CBDCA were established by exposing cells to increasing doses of each platinum-based drug as described. The CDDP sensitive and resistant ovarian cancer cell lines 41M and 41MR were provided by Dr. Kelland (UK) and maintained in DMEM supplemented with 10% exosome-depleted FBS.
(§3) To determine whether cisplatin-resistant cells transmit their resistance through exosomes we used matched CDDP-sensitive/resistant lung cancer and ovarian cell lines H23S/H23R, H460S/H460R, A2780S/A2780R and 41M/41MR and, that we established previously (Ibanez de Caceres, I. et al. IGFBP-3 hypermethylation-derived deficiency mediates cisplatin resistance in non-small-cell lung cancer. Oncogene 29, 1681-1690 (2010); Vera, O. et al. DNA Methylation of miR-7 is a Mechanism Involved in Platinum Response through MAFG Overexpression in Cancer Cells. Theranostics 7, 4118-4134 (2017)). […] We then isolated exosomes from resistant subtypes H23R, H460R, 41MR and A2780R and confirmed their proper size (around 100 nm) using electron microscopy and NanoSight analysis (FIGS. 2A and B) Once we have confirmed that our samples were successfully enriched in exosomes, we wanted to assess if exosomes from cisplatin-resistant cells could alter the drug response of sensitive cells. For that purpose, firstly, we examined whether exosomes isolated from CDDP resistant subtypes were taken up by sensitive parental cells, we labelled exosomes with PKH26 and exposed them to sensitive cells. The analysis using flow cytometry confirmed the uptake of resistant exosomes in more than 77% of sensitive cells H23S, 41M and A2780S compared with PBS control (FIG. 3).

[2] = tested on: A2780S/A2780R ovarian cancer cell lines; conditions: IC50 of resistant cell line/IC50 of sensitive cell line, p<0.001
Procedure: as §1, §2, §3

[3] = tested on: 41M/41MR ovarian cancer cell lines; conditions: IC50 of resistant cell line/IC50 of sensitive cell line; 41MR vs 41M; p<0.001
Procedure: as §1, §2, §3

[4] = tested on: H460S/H460R lung cancer cell lines; conditions: IC50 of resistant cell line/IC50 of sensitive cell line, p<0.001
Procedure: as §1, §2, §3

N.N.[Cl][Pt][Cl] [cisplatin]
Resistant-Index (RI) [1]: 2.77 | Resistant-Index (RI) [2]: 2.11 | Resistant-Index (RI) [3]: 4.26 | Resistant-Index (RI) [4]: 2.49
